In PMC2633461, “Porcine sclera as a model of human sclera for in vitro transport experiments: histology, SEM, and comparative permeability” (Molecular Vision, 2009):
Where two headings read alike, the source gives them in different places.

Columns and labels:
[1] = Experimental: Human corneal-scleral rims, which were discarded following harvesting of the corneal button (Regional Cornea Bank, Bologna, Italy), were frozen in liquid nitrogen and used within 15 days of explantation.
(§1) Permeation experiments were performed in Franz-type diffusion cells with an area of 0.2 cm^2 for human sclera and 0.6 cm^2 for porcine sclera.
(§2) To reduce edge damage, a thin layer of silicone lubricant was applied to the glass surface, and the minimum force necessary to keep the cell sealed was applied.
(§3) The receptor compartment contained 4 ml of 25 mM HEPES buffer (pH 7.4) added with 0.9% NaCl, kept at 37 °C, and magnetically stirred. […] At predetermined time intervals, the receptor solution was sampled for the determination of drug permeated.
(§4) The transscleral flux, i.e., the amount of drug that crosses 1 cm^2 of sclera in 1 h (J, µg/cm^2h) was calculated as the slope of the regression line at the steady-state while the lag time was the intercept of the regression line on the x-axis. The permeability coefficient (P, cm/s) was calculated as J/Cv where Cv represents the concentration of the donor solution.
(§5) Experiments performed with human sclera were replicated three to four times while those performed on porcine sclera were replicated five to seven times. All the experiments were performed using previously frozen tissues, and acetaminophen permeability was tested also through fresh pig sclera.
(§6) Acetaminophen and insulin were analyzed by HPLC with a Perkin-Elmer instrument (Norwalk, CT), which is made of an isocratic pump LC250 an UV detector LC290, and the Perkin Elmer Turbochrom Workstation software.
(§7) Acetaminophen was analyzed using a C18 Novapak® column (150×3.9 mm; Waters, Milford, MA) and a mobile phase composed of 92% (v/v) 10 mM sodium acetate pH 4 and 8% (v/v) acetonitrile, which was pumped at 1 ml/min. The detector was set at 254 nm.
(§8) Insulin was analyzed using a C18 Symmetry300® column (250×4.6 mm; Waters) at 40 °C and a mobile phase composed of 73% (v/v) aqueous phase and 27% (v/v) acetonitrile, which was pumped at 1 ml/min. The aqueous phase contained anhydrous sodium sulfate 28.4 g/l and phosphoric acid 2.7 ml/l and was adjusted at pH 2.3 with ethanolamine. The detector was set at 214 nm.
(§9) The excitation and emission λ were 490 and 520 nm, respectively.

[2] = cited from earlier work
[3] = remark: listed apart in the source
Experimental: Porcine globes were obtained from pigs (Large White, Landrance, Duroc; 10–11 months) that ranged in weight 145–190 kg and came from a local slaughterhouse. Porcine eyes were either used within 24 h of explantation or frozen at −80 °C until use. After thawing, the adherent muscle tissue was removed from the eye bulb, and the anterior segment of the eye was circumferentially cut behind the limbus. The eye was then cut into two halves, the vitreous was removed, and the anterior sclera was used for permeation experiments after the removal of the underling tissues using a cotton swab. The frozen tissues were used within three months of explantation.
as §1, §2, §3, §4, §5, §6, §7, §8, §9

[4] = cited from earlier work; remark: listed apart in the source
Source text: Regardless of the nature of this interaction, we have estimated that the affinity of insulin for the sclera was the same for porcine and human tissues. […] These values (not statistically different between them, p=0.176) indicate a similar behavior of the two tissues toward insulin and also confirm that insulin has an effective affinity for the sclera. In fact, even if the absolute value of the par ...

[5] = Affinity of insulin for scleral tissue: partition coefficient, porcine sclera / aqueous solution; assay type: in vitro ADME, pig; conditions: insulin about 100 µg/ml in HEPES pH 7.4 with EDTA and lysine, 0.4 ml on 50-100 mg tissue, 3 h, room temperature, HPLC, mean±SEM, n at least 6
Experimental: (§10) Affinity of insulin for scleral tissue was estimated by measuring its partition coefficient between human or porcine sclera and an aqueous solution at pH 7.4. Insulin was dissolved in the aqueous vehicle that was used as donor for the permeation experiments at a concentration of about 100 µg/ml. This solution (0.4 ml) was added to a previously weighed amount of human or porcine sclera (50–100 mg) in a 2.0 ml vial. The insulin solution and the scleral tissues were incubated at room temperature for 3 h. The solution was then filtered (regenerated cellulose, 0.45 µm pore size) and analyzed by HPLC for the determination of the final insulin concentration in the water phase [Wf]. The insulin concentration [S] in the sclera after the incubation period was calculated as:
(§11) [S]=[Wi] x VW - [Wf] x VW/VS
(§12) where [Wi] is the initial concentration of insulin in the aqueous phase, [Wf] is the concentration of insulin in the aqueous phase after the incubation period, VW is the volume of the aqueous phase (0.4 ml), and VS is the volume of the sclera, which was estimated by its weight and by considering the scleral density to be equal to 1 g/ml.
(§13) The partition coefficient (Ks/w) was then calculated as: […]
(§14) Each experiment was replicated at least six times.

[6] = no reference given; cited from earlier work
Experimental: The permeability was evaluated using three model compounds. […] Insulin has been chosen as a model protein. It has a molecular weight of 5,734 Da, a molecular radius of the monomeric form of 1.13 nm or 2.0 nm, and an isoelectric point of about 5.4. […] Permeation experiment ...

[7] = Affinity of insulin for scleral tissue: partition coefficient, human sclera / aqueous solution; assay type: in vitro ADME; conditions: insulin about 100 µg/ml in HEPES pH 7.4 with EDTA and lysine, 0.4 ml on 50-100 mg tissue, 3 h, room temperature, HPLC, mean±SEM, n at least 6
Experimental: as §10, §11, §12, §13, §14

[8] = cited from earlier work; remark: listed apart in the source
[9] = cited from earlier work; remark: listed apart in the source
[10] = neutral molecules of different lipophilicity, rhodamine 6G electrically charged at the pH of the experiment

Compound: CC(=O)Nc1ccc(O)cc1 [Acetaminophen, acetaminophen]
- Flux through human sclera relative to pig sclera [1]: 2 times
- DK (diffusion coefficient x partition coefficient) ([1]; SEM): 2.05±0.18 cm^2/s x10^−6
- Lag-time ([1]; pH 7.4): no lag time was detectable
- P (permeability coefficient) ([1]; pH 7.4): 34.9±3.0 cm/s x10^−6
- Permeability coefficient across human sclera ([1]; pH 7.4): 3.49 [±0.3] x10^-5 cm/s
- Molecular radius [2]: 0.36 nm
- DK (diffusion coefficient x partition coefficient) ([3]; SEM): 1.95±0.26 cm^2/s x10^−6
- Effect of freezing on tissue permeability (fresh vs previously frozen porcine sclera) ([3]; pH 7.4): did not have any effect on tissue permeability
- P (permeability coefficient) ([3]; pH 7.4): 15.6±2.1 cm/s x10^−6
- Lag-time ([3]; pH 7.4, SEM): 35 ± 2 min

Compound: CCCC1O[C@@H]2C[C@H]3[C@@H]4CCC5=CC(=O)C=C[C@]5(C)[C@H]4[C@@H](O)C[C@]3(C)[C@]2(C(=O)CO)O1 (stereo partly shown) [budesonide]
- Partition coefficient sclera (literature) [4, 10]: 1.2

Compound: Cc1ccc(-c2cc(C(F)(F)F)nn2-c2ccc(S(N)(=O)=O)cc2)cc1 [celecoxib]
- Partition coefficient sclera (literature) [4, 10]: 1.4

Compound: OC[C@@H](O)[C@@H](O)[C@H](O)[C@H](O)CO [mannitol]
- Partition coefficient sclera (literature) [4, 10]: 0.005

Compound: CC/N=c1\cc2oc3cc(NCC)c(C)cc3c(-c3ccccc3C(=O)OCC)c-2cc1C [rhodamine 6G]
- Partition coefficient sclera (literature) [4, 10]: high affinity

Compound: OC[C@H]1O[C@@](CO)(O[C@H]2O[C@H](CO)[C@@H](O)[C@H](O)[C@H]2O)[C@@H](O)[C@@H]1O [sucrose]
- Partition coefficient sclera (literature) [4]: 0.6

Compound: Insulin from bovine pancreas [listing 1 of 2 here]
- Flux ([1]; human sclera, previously frozen, Franz-type cell 0.2 cm^2, donor 4.9 mg/ml acetaminophen, 1 mg/ml FD-150 or 1 mg/ml insulin in 25 mM HEPES pH 7.4, receptor HEPES pH 7.4 + 0.9% NaCl (0.3% BSA for insulin), 37 °C, slope at steady state, HPLC-UV (FD-150 fluorescence), mean±SEM, n = 3-4, SEM): 6.93±1.14 µg/cm^2h
- P (permeability coefficient) ([1]; human sclera, previously frozen, Franz-type cell 0.2 cm^2, donor pH 7.4 HEPES, 37 °C, P = J/Cv, mean±SEM, n = 3-4): 1.93±0.32 cm/s x10^−6
- Lag-time ([1]; human sclera, previously frozen, intercept of the regression line on the x-axis, donor pH 7.4, 37 °C, mean±SEM, n = 3-4, SEM): 71 ± 6 min
- DK (diffusion coefficient x partition coefficient) ([1]; human sclera, from P = DK/H with H = tissue thickness (0.59 mm), mean±SEM, SEM): 0.11±0.02 cm^2/s x10^−6
- Flux through human sclera relative to pig sclera ([1]; ratio human / pig sclera flux): 2 times
- Partition coefficient (Ks/w) between sclera and donor solution [5]: 7.0±1.1
- Flux ([3]; porcine sclera, previously frozen, Franz-type cell 0.6 cm^2, donor 4.9 mg/ml acetaminophen, 1 mg/ml FD-150 or 1 mg/ml insulin in 25 mM HEPES pH 7.4, receptor HEPES pH 7.4 + 0.9% NaCl (0.3% BSA for insulin), 37 °C, slope at steady state, HPLC-UV (FD-150 fluorescence), mean±SEM, n = 5-7, SEM): 3.74±2.10 µg/cm^2h
- Lag-time ([3]; porcine sclera, previously frozen, intercept of the regression line on the x-axis, donor pH 7.4, 37 °C, mean±SEM, n = 5-7, SEM): 198 ± 23 min
- DK (diffusion coefficient x partition coefficient) ([3]; porcine sclera, from P = DK/H with H = tissue thickness (1.25 mm), mean±SEM, SEM): 0.11±0.05 cm^2/s x10^−6
- isoelectric point [6]: about 5.4
- Partition coefficient (Ks/w) between sclera and donor solution [7]: 10.3±1.2

Compound: Insulin from bovine pancreas [listing 2 of 2 here]
- Molecular radius of the monomeric form [8]: 1.13 nm
- Molecular radius (dimers/hexamers in solution) [9]: 2.5 nm
